# Test results published in publication PMC6934184, “Selective DNA-PKcs inhibition extends the therapeutic index of localized radiotherapy and chemotherapy” (The Journal of Clinical Investigation, 2019).
# Target: T1, WNK2 (Homo sapiens, UniProt Q9Y3S1)
# T1 construct: purchased Thermo Fisher Scientific (Life Technologies) SelectScreen
# Test: SelectScreen LanthaScreen
# Assay type: binding
# Conditions: read-out: % displacement
# Procedure, shortened: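 Percent values come from Thermo SelectScreen profiling of NU5455, combining activity and binding assays. CSF1R was run in Z'LYTE format at Km app ATP, and CAMK1 in Adapta format with ATP listed at 10.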
# T1 sequence (Q9Y3S1 whole entry): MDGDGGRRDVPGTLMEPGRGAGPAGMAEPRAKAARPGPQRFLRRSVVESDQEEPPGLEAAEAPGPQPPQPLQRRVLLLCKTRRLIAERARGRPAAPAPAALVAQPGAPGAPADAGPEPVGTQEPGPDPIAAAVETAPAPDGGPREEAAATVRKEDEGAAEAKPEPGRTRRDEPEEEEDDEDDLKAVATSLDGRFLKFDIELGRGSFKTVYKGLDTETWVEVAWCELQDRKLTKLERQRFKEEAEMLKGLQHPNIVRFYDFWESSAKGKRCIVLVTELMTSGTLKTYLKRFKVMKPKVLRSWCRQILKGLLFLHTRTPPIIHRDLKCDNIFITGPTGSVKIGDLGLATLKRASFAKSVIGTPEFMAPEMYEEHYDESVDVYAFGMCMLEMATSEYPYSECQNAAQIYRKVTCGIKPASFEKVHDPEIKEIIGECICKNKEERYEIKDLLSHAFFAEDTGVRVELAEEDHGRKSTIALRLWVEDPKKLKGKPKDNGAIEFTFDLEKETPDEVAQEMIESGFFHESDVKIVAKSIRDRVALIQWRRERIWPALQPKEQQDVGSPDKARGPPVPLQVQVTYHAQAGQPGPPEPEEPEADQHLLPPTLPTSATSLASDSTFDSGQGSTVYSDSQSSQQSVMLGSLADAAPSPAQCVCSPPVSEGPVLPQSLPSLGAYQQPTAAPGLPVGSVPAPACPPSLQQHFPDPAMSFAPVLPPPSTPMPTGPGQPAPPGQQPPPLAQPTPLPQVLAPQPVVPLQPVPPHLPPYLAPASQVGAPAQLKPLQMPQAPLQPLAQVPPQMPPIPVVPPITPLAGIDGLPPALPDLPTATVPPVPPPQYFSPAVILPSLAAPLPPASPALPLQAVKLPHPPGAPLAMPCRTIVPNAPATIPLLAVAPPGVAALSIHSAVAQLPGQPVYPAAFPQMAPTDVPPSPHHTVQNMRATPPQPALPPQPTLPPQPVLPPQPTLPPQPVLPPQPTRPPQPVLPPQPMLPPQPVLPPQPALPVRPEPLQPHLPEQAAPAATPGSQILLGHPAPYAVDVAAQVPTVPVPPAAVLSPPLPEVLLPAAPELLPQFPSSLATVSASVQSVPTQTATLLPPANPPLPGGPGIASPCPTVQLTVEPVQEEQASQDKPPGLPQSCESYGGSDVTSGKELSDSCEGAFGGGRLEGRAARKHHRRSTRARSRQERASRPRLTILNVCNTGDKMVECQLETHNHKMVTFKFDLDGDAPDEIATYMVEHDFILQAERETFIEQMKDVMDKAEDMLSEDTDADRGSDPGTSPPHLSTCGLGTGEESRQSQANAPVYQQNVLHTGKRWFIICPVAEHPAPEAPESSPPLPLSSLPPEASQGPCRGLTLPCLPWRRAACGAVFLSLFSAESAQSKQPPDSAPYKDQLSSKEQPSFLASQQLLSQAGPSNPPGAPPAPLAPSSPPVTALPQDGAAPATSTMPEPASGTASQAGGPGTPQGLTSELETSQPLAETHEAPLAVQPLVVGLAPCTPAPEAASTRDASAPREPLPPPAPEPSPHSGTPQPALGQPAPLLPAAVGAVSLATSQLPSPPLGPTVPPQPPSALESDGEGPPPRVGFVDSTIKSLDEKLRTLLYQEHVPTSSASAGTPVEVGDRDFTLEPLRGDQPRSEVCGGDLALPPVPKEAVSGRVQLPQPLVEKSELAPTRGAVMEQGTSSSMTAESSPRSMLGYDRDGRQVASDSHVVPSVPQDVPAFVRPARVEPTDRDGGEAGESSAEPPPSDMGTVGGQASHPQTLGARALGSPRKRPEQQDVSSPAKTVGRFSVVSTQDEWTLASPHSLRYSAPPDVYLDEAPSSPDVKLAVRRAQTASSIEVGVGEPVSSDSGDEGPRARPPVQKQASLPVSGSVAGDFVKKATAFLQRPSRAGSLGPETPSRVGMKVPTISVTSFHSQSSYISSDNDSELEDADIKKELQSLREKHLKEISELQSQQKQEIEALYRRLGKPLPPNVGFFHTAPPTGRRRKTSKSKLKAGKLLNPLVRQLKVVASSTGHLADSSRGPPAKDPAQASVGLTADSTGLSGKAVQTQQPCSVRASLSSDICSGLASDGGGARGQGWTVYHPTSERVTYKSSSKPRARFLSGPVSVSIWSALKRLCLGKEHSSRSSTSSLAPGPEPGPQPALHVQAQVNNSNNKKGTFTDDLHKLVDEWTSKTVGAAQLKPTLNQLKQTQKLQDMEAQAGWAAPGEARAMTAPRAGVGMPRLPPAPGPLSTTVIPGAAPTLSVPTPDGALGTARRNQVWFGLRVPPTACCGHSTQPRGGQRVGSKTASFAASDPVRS
structure (smiles),measurement,value
CN(C(=O)CN1CCOCC1)c1ccc2sc3c(-c4cccc5c(=O)cc(N6CC7CCC(C6)O7)oc45)cccc3c2c1 [NU5455],inhibition at 1 µM,-2.5%
